{"source": "paper PMC9410537", "about": "“Discovery of Ircinianin Lactones B and C—Two New Cyclic Sesterterpenes from the Marine Sponge Ircinia wistarii” (Marine Drugs, 2022)", "key": {"[1]": {"test_system": "L. donovani strain MHOM/ET/67/L82 axenic amastigotes", "assay": "Activity against L. donovani axenic amastigotes (resazurin)", "type": "cell-based, Leishmania donovani", "details": "in vitro, Table 2 values are means of two independent assays", "experimental": "Activity against L. donovani axenic amastigotes. Amastigotes of L. donovani strain MHOM/ET/67/L82 were grown in axenic culture at 37 °C in SM medium at pH 5.4 supplemented with 10% heat-inactivated fetal bovine serum under an atmosphere of 5% CO2 in air. 100 µL of culture medium with 10^5 amastigotes from axenic culture with or without a serial drug dilution were seeded in 96-well microtiter plates. Serial drug dilutions ranged from 100 to 0.002 μg/mL. After 70 h of incubation, the plates were inspected under an inverted microscope to assure growth of the controls and sterile conditions."}, "[2]": {"test_system": "T. cruzi Tulahuen strain C2C4", "assay": "Activity against T. cruzi in L-6 cells (beta-galactosidase/CPRG)", "type": "cell-based, Trypanosoma cruzi", "details": "Tulahuen C2C4 in L-6 cells, Table 2 values are means of two independent assays", "experimental": "Activity against T. cruzi. Rat skeletal myoblasts (L-6 cells) were seeded in 96-well microtiter plates at 2000 cells/well in 100 μL RPMI 1640 medium with 10% FBS and 2 mM L-glutamine. After 24 h, the media in each well was removed and replaced with 100 μL of fresh media containing 5000 trypomastigote forms of T. cruzi Tulahuen strain C2C4 containing the β-galactosidase (lacZ) gene. After 48 h, the media was removed from the wells again, and this time, replaced by 100 μL fresh medium with or without 1 from 100 to 0.002 μg/mL. After 96 h of incubation, the plates were inspected under an inverted microscope to assess growth and sterility of the controls. Then, the substrate CPRG/Nonidet (50 μL) was added to all wells. A color reaction developed within 2–6 h and could be read photometrically at 540 nm."}, "[3]": {"test_system": "P. falciparum NF54 strain", "assay": "In vitro activity against erythrocytic stages of P. falciparum (3H-hypoxanthine incorporation assay)", "type": "cell-based", "details": "Plasmodium falciparum, Table 2 values are means of two independent assays", "experimental": "Activity against P. falciparum. In vitro activity against erythrocytic stages of P. falciparum was determined using a ^3H-hypoxanthine incorporation assay against the drug-sensitive NF54 strain [76]. Compounds were dissolved in DMSO at 10 mg/mL and further diluted in medium before being added to parasite cultures incubated in RPMI 1640 medium without hypoxanthine, supplemented with HEPES (5.94 g/L), NaHCO3 (2.1 g/L), neomycin (100 U/mL), Albumax^R (5 g/L) and washed human red cells A^+ at 2.5% haematocrit (0.3% parasitaemia). Serial drug dilutions ranged from 100 to 0.002 μg/mL. The 96-well plates were incubated in a humidified atmosphere at 37 °C; 4% CO2, 3% O2, 93% N2. After 48 h 50 μL of ^3H-hypoxanthine (=0.5 μCi) was added to each well of the plate. The plates were incubated for a further 24 h under the same conditions. The plates were then harvested with a Betaplate™ cell harvester (Wallac, Zurich, Switzerland) and the red blood cells were transferred onto a glass fiber filter then washed with distilled water. The dried filters were inserted into a plastic foil with 10 mL of scintillation fluid and counted in a Betaplate™ liquid scintillation counter (Wallac, Zurich, Switzerland). IC50 values were calculated from sigmoidal inhibition curves by linear regression using Microsoft Excel. Chloroquine diphosphate (Sigma C6628) was used as control (IC50 0.006 ± 0.002 μM)."}, "[4]": {"test_system": "L-6 cells (rat skeletal myoblasts)", "assay": "In vitro cytotoxicity assay with L-6 cells (resazurin)", "type": "cell-based", "details": "L6, 70 h, read-out: IC50 L6", "experimental": "In vitro cytotoxicity assay with L-6 cells. Assays were performed in 96-well microtiter plates, each well containing 100 μL of RPMI 1640 medium supplemented with 1% L-glutamine (200 mM) and 10% fetal bovine serum, and 4000 L-6 cells (a primary cell line derived from rat skeletal myoblasts). Serial drug dilutions ranged from 100 to 0.002 μg/mL. After 70 h of incubation, the plates were inspected under an inverted microscope to assure growth of the controls and sterile conditions. 10 μL of resazurin was then added to each well and the plates were incubated for another 2 h. […] Podophyllotoxin (Sigma P4405) was used as control (IC50 0.011 ± 0.005 μM)."}, "[5]": {"test_system": "Trypanosoma brucei rhodesiense STIB900", "assay": "Activity against Trypanosoma brucei rhodesiense STIB900 (resazurin)", "details": "Table 2 values are means of two independent assays", "description": "Activity against Trypanosoma brucei rhodesiense STIB900. […] Minimum Essential Medium (50 µL) supplemented with 25 mM HEPES, 1 g/L additional glucose, 1% MEM non-essential amino acids (100×), 0.2 mM 2-mercaptoethanol, 1 mM Na-pyruvate and 15% heat inactivated horse serum was added to each well of a 96-well microtiter plate. Serial drug dilutions ranging from 100 to 0.002 μg/mL were prepared. Then, 4 × 10^3 bloodstream forms of T. b. rhodesiense STIB 900 in 50 µL were added to each well and the plate was incubated at 37 °C under a 5% CO2 atmosphere for 70 h. 10 µL of a resazurin solution (resazurin, 12.5 mg in 100 mL double-distilled water) was then added to each well and incubation continued for a further 2–4 h [70]. The plates were read with a Spectramax Gemini XS microplate fluorometer (Molecular Devices Cooperation, Sunnyvale, CA, USA) using an excitation wavelength of 536 nm and an emission wavelength of 588 nm. Data were analyzed using Softmax Pro (Molecular Devices Cooperation, Sunnyvale, CA, USA), which calculated IC50 values by linear regression [71] and 4-parameter logistic regression from the sigmoidal dose inhibition curves."}, "[6]": {"assay": "Observed stability of the isolated compounds", "type": "physicochemical", "from_the_text": "The shift values of the terminal heterocycle were in very good agreement with literature data from similar natural products, bearing a γ-hydroxy-γ-butenolide moiety. Analogous to compound 7, the Δ^8,10 double bond of 8 was defined as E (C-9: δC 16.2 and NOESY cross correlations depicted in Figure 4). Likewise, based on the same observed diagnostic NOE crosspeaks for the indene system (Figure S43B) and for biogenetic reasons, we propose that 8 is 11R*, 15R*, 18S*, 20R*, 21S* configured. […] Therefore, we integrated computational methods and aimed for quantum-mechanical predictions of ^1H and ^13C NMR chemical shifts of a 1S- and a 1R-configured version of 8.\nAll tests were performed with 1 as a pre-screening for the scaffold’s activity within their respective assays. Based on the results from the pre-screening, the biological evaluation of the structural congeners was planned. Unfortunately, an instability phenomenon affected the purity of the isolated compounds. Due to the limited amounts of the isolated compounds, repurification would not have yielded the required sample quantity for the assays. This reality precluded biological evaluation of the structural congeners 3–8."}}, "note": "Like-named read-outs stand apart in the source and are kept apart here."}
{"molecule": "CCCCCCCCCCCCCCCCOP(=O)([O-])OCC[N+](C)(C)C", "note": "[miltefosine, Miltefosine]", "values": [{"measurement": "IC50", "setting": "[1]; Leishmania donovani", "value": "650 ± 270", "unit": "nM"}, {"measurement": "IC50", "setting": "[1]", "value": 486, "unit": "nM"}]}
{"molecule": "O=C(Cn1ccnc1[N+](=O)[O-])NCc1ccccc1", "note": "[benznidazole, Benznidazole, reference compound]", "values": [{"measurement": "IC50", "setting": "[2]; Trypanosoma cruzi, TULAHUEN, L6, in vitro", "value": "2310 ± 1150", "unit": "nM"}, {"measurement": "IC50", "setting": "[2]; in vitro", "value": 3360, "unit": "nM"}]}
{"molecule": "CCN(CC)CCCC(C)Nc1ccnc2cc(Cl)ccc12", "note": "(stereo not drawn) [chloroquine, Chloroquine diphosphate, reference compound]", "values": [{"measurement": "IC50", "setting": "[3]", "value": 6, "unit": "nM"}]}
{"molecule": "COc1cc([C@@H]2c3cc4c(cc3[C@H](O)[C@H]3COC(=O)[C@H]23)OCO4)cc(OC)c1OC", "note": "[Podophyllotoxin, reference compound]", "values": [{"measurement": "IC50", "setting": "[4]", "value": "11 ± 5", "unit": "nM"}]}
{"molecule": "Nc1nc(N)nc(Nc2ccc([As]3SCC(CO)S3)cc2)n1", "note": "(stereo not drawn) [melarsoprol, Melarsoprol, reference compound]", "values": [{"measurement": "IC50", "setting": "[5]; Trypanosoma brucei, RHODESIENSE|STIB900, read-out: IC50 T. brucei rhodesiense, in vitro, STIB900 bloodstream forms", "value": "13 ± 6", "unit": "nM"}, {"measurement": "IC50", "setting": "[5]; read-out: IC50 T. brucei rhodesiense, in vitro, STIB900 bloodstream forms", "value": 20, "unit": "nM"}]}
{"molecule": "Ircinianin lactone B [compound 7]", "values": [{"measurement": "Stability of isolated compound", "setting": "[6]", "value": "unstable"}]}
{"molecule": "CC(=CC1C=C(C)C2CCC(C)C2C12OC(=O)C(C)=C2O)CCCC1=CC(=O)OC1O", "note": "(stereo not drawn) [compound 8, Ircinianin lactone C]", "values": [{"measurement": "Stability of isolated compound", "setting": "[6]; rapid decomposition after the NMR measurements", "value": "unstable"}]}
{"molecule": "Ircinianin lactone A [compound 6]", "values": [{"measurement": "Stability of isolated compound", "setting": "[6]", "value": "unstable"}]}
{"molecule": "Oxoircinianin [compound 3]", "values": [{"measurement": "Stability of isolated compound", "setting": "[6]", "value": "unstable"}]}
